Results on 1 compound are retold here after patent EP1800684A1, “Novel alkyl phospholipid derivatives and uses thereof” (Zentaris GmbH, priority 2005, dated 2007).

As a reminder, the MIC is the smallest concentration in the dilution series that meets the test's criterion for growth inhibition. The IC50 is the concentration that inhibits the measured activity by half. Read a low IC50 as inhibition by little substance.

In brackets after ≈: the same amount, converted by molar mass.

Holding throughout (type): cell-based
Assay [1] has as its system Cryptocoocus gattii (ATCC 32608). Briefly: Anti-fungal susceptibility test (microdilution), fungus G. As to conditions: fungus G; no visible growth after 72 hours at 35° C; read-out: MIC. The procedure:
(§1) The antifungal activities of the test compounds (compounds of the invention and known prior art compounds) were measured according to standard microdilution methods (Cryptococcus/Aspergillus: Ghannoum et al., Journal of Clinical Microbiology 1992, 30 (11): 2881-2886; Candida: Reference method for broth dilution susceptibility testing of yeast: proposed standard, NCCLS document M27-P, National Committee for Clinical Laboratory Standards 1992, Villanova, Pa).
(§2) A serial dilution series starting from 64 µg/mL test compound per well down to 0.125 µg/mL test compound per well was applied for each test compound on each fungus. The MIC of each compound was defined as the concentration which produces no visible growth after 48 hours (Candida) and 72 hours (Cryptococcus, Aspergillus) of culture at 35° C.
(§3) The following fungi were assessed: • A) Candida albicans (ATCC 10231) • B) Candida albicans (ATCC 90028) • C) Candida albicans (strain TS3, Shrikantha et al., Journal of Bacteriology 2000, 182(6):1580-1591) • D) Candida parapsilosis (ATCC 22019) • E) Cryptocoocus neoformans (ATCC 90112) • F) Cryptocoocus neoformans (strain H99; Ganendren et al., Antimicrobial Agents and Chemotherapy, 2004, 48(5):1561-1569) • G) Cryptocoocus gattii (ATCC 32608) • H) Aspergillus fumigatus (ATCC 204305) • I) Aspergillus fumigatus (strain 322-384)
Background: In broth dilution the organism is exposed to a series of concentrations in liquid medium.

Assay [2] has as its system KB/HeLa (ATCC CCL17, human cervix carcinoma). The experiment in a line: XTT cytotoxicity assay, KB/HeLa cells. Particulars: 48 h, 2 days of continuous drug exposure. The procedure: (§4) Human tumor cell lines KB/HeLa (ATCC CCL17, human cervix carcinoma), PC3 (ATCC CRL1435, human prostate carcinoma) and RKOp21 (human colon adenocarcinoma) cells were used in an automated XTT screening assay for the assessment of cytotoxicity.
(§5) The XTT assay quantifies cellular metabolic activity which correlates with cell viability and cell number. Test compounds (selected compounds of the invention and known substances as controls) are dissolved in culture medium at 600µM and added to the tumor cells in 10 different concentrations in a semi-logarithmic fashion starting from 100 µM as highest concentration.
(§6) 48h later cellular metabolic activity of cells treated with test compounds is quantified by measurement of the absorbance at 490nm (conversion of XTT dye) in comparison to untreated control cells (100% viability).
(§7) KB/HeLa and PC3 cells were cultivated in RPMI medium supplemented with 10% heat inactivated fetal calf serum, 2 mM glutamine, 100 U/ml penicillin, and 100 µg/ml streptomycin. RKOp21 cells were grown in DMEM supplemented with 10% heat inactivated fetal calf serum, 2 mM glutamine, 100 U/ml penicillin, and 100 µg/ml streptomycin. All cells were cultured at 37°C in 5% CO2 humidified air.
(§8) On the first day of the experiment cells were harvested from exponential phase cultures by trypsination, counted and plated into 96 well flat-bottom micro titer plates depending on the cell line as listed below:
(§9) After a 24h recovery to allow the cells to resume exponential growth, the test compounds were diluted immediately prior to use and transferred in 25µl volume to the wells.
(§10) Following 2 days of continuous drug exposure 50µl of freshly prepared XTT-PMS solution (2% […] PMS in PBS + 98% 1 mg/ml XTT in RPMI 1640 without phenol red) was added to the wells. To measure the proportion of living cells, the cells were incubated for 3 h with XTT-PMS reagent at 37°C, 5% CO2, humidified atmosphere allowing to form the formazan salt. The amount of soluble formazan salt produced by cellular reduction of XTT is quantified by measuring the absorbance at 490nm using the Biomek® 2000 ELISA plate reader.
(§11) %-inhibition (cytotoxicity) of each test compound was calculated in relation to untreated control cells. Inhibition curves were generated and IC50 values calculated by using GraphPad Prism.

Assay [3] deals with Trypanosoma brucei rhodesiense (strain STIB900). The experiment in a line: In vitro drug activity assay, protozoon B (bloodstream form trypomastigotes, Alamar Blue). As to conditions: incubated for 72 hours. The procedure:
Trypanosoma brucei rhodesiense STIB900 bloodstream form trypomastigotes were maintained in HMI-18 medium (Hirumi H, Hirumi K, J Parasitol. 1989, 75(6):985-989) with 15% heat-inactivated fetal calf serum at 37°C, 5% CO2, humidified atmosphere. Trypomastigotes were washed and resuspended in fresh medium at a concentration of 2 x 10^5 mL. Test compounds were given to the trypomastigotes and plates were incubated for 72 hours at 37°C, 5% CO2, humidified atmosphere. At 72 hours the plates were assessed microscopically before Alamar Blue was added (Raz et al., Acta Trop. 1997, 68: 139-147). Plates were read after 5 to 6 hours at EX/EM 530/585 nm with a filter cutoff at 550 nm. ED50 values were calculated with Msxlfit (IDBS).
The following protozoa were assessed: • A) Trypanosoma cruzi (Tulahuan-LACZ amstigotes in PEM, Lorente SO et al., Antimicrobial agents and chemotherapy 2004, 48(8): 2937-2950; Buckner et al., Infection and Immunity 1999, 67(1): 403-409; Buckner et al., Antimicrobial Agents and Chemotherapy 1996, 40(11): 2592-2597) • B) Trypanosoma brucei rhodesiense (strain STIB900, Lorente SO et al., Antimicrobial agents and chemotherapy 2004, 48(8): 2937-2950; Habtemariam S, BMC Pharmacology 2003, 3:6) • C) Plasmodium falciparum (strain K1, Korsinczky M et al., Antimicrobial agents and chemotherapy 2000, 44(8): 2100-2108; Thaitong S and Beale GH, Trans. R. Soc. Trop. Med. Hyg. 1981, 75: 271-273; Trager W and Jensen JB, Science 1976, 193: 673-675) • D) Plasmodium falciparum (strain 3D7, Mu et al., PLoS Biology 2005, 3(10): e335)

Assay [4] relates to Cryptocoocus neoformans (ATCC 90112). The experiment in a line: Anti-fungal susceptibility test (microdilution), fungus E. As to conditions: fungus E; no visible growth after 72 hours at 35° C; read-out: MIC. The procedure:
as §1, §2, §3

For assay [5], the system named is Candida albicans (ATCC 90028). Briefly: Anti-fungal susceptibility test (microdilution), fungus B. As to conditions: Candida albicans, ATCC90028, no visible growth after 48 hours at 35° C, read-out: MIC. The procedure: as §1, §2, §3
Assay [6] relates to Cryptocoocus neoformans (strain H99). Briefly: Anti-fungal susceptibility test (microdilution), fungus F. As to conditions: fungus F; no visible growth after 72 hours at 35° C; read-out: MIC. The procedure:
as §1, §2, §3

The test system of assay [7] is Candida albicans (strain TS3). Briefly: Anti-fungal susceptibility test (microdilution), fungus C. Particulars: Candida albicans, no visible growth after 48 hours at 35° C, read-out: MIC. The procedure:
as §1, §2, §3

In assay [8] the test system is PC3 (ATCC CRL1435, human prostate carcinoma). The experiment in a line: XTT cytotoxicity assay, PC3 cells. As to conditions: PC-3, 48 h, 2 days of continuous drug exposure. The procedure: as §4, §5, §6, §7, §8, §9, §10, §11
On the technique in general: Tetrazolium assays rely on reduction of a dye to a coloured formazan, in cell work by metabolically active cells.

Assay [9] concerns Candida parapsilosis (ATCC 22019). The experiment in a line: Anti-fungal susceptibility test (microdilution), fungus D. As to conditions: ATCC22019, no visible growth after 48 hours at 35° C, read-out: MIC. The procedure:
as §1, §2, §3

As to `CCCCCCCCCCCCCCCCOP(=O)([O-])OCC[N+]1(C)CCCCC1` [Compound 2, Phosphoric acid 2-(1-methyl-piperidin-1-yl)-ethyl ester hexadecyl ester], the minimum inhibitory concentration (MIC) in [1] is 0.75 µg/mL (≈ 1.68 µM); in assay [4], 1.5 µg/mL (≈ 3.35 µM); in [5], 1 µg/mL (≈ 2.23 µM); in [6], 1 µg/mL (≈ 2.23 µM); in [7] it was 1.5 µg/mL (≈ 3.35 µM); in [9], 2 µg/mL (≈ 4.47 µM). In addition, the IC50 in [2] was 5.02 µM; in assay [8], 19.6 µM. Further, the “ED50 (µg/mL)” value in [3] is reported as 17,50 µg/mL.
